These results are taken from patent US20150313913A1, “POSITIVE ALLOSTERIC MODULATORS OF THE GABA-A RECEPTOR IN THE TREATMENT OF AUTISM” (UNIVERSITY OF WASHINGTON THROUGH ITS CENTER FOR …, priority 2013, published 2015).

SMILES strings stand for the structures. “Also recorded” adds a separate entry of the source.

The test system of data set [1] is GABA-A α4 or α6 subtypes. As to conditions: cited from earlier work.
In data set [2] the test system is mouse genetic models of human Dravet syndrome and idiopathic autism. Briefly: Summary: low-dose treatment of mouse models of autism. The data set is classed as in vivo, mice. As to conditions: low doses that do not induce sedative or anxiolytic effects. The source says:
The present disclosure describes methods effective in the rescue or amelioration of autism-like behavior, cognitive deficit, and context-dependent spatial memory.
In particular embodiments, these methods comprise the administration of low doses of a benzodiazepine to a human or other mammalian subject in order to rescue autism-like behavior, cognitive deficit, and context-dependent spatial memory. […] At such low doses, the administration of benzodiazepines, such as CLZ, to mammalian subjects will result in improvement of autism-like behavior, cognitive deficit, and context-dependent spatial learning and memory with much lower levels of sedation compared to mammalian subjects who receive typical higher doses of CLZ or other benzodiazepines that are used for treatment of anxiety, insomnia, or seizure.
The present disclosure is also directed to methods of rescuing or ameliorating indicia of Autism Spectrum disorders, autism-like behavior, cognitive deficit, and context-dependent spatial learning and memory in Dravet syndrome or idiopathic autism with α-2,3-specific GABA-A receptor positive allosteric modifiers. Such α-2,3-subunit selective GABA-A receptor positive allosteric modifiers include L838,417.
Therapeutic approaches to treat autistic traits in animal studies or in clinical trials have primarily focused on reducing excitatory neurotransmission in glutamatergic synapses to rebalance E/I ratio in autistic brain (Michalon et al., 2012; Yang et al., 2012). However, autistic-like behaviors in ASD mouse models are only partially reversed by drugs that inhibit excitatory neurotransmission, and these drugs also have unwanted side effects on wild-type mice (Henderson et al., 2012; Michalon et al., 2012; Yang et al., 2012). To overcome these drawbacks, the inventors focused on the opposing side, the GABAergic inhibitory transmission in autistic brain. Their results highlight the potential for therapy of autistic-like behaviors and cognitive deficit in ASD by low-dose treatment with subunit-selective benzodiazepines and other positive allosteric modulators of GABA-A receptors. […] It is possible that the biphasic dose-response relationship of the positive allosteric modulators reflects their actions on receptors containing α2,3 subunits at low doses and on receptors containing α1 subunits at higher doses.

Data set [3] deals with Scn1a+/− mice. Briefly: Open-field social interaction test. As to conditions: single i.p. 0.0625 mg/kg 30 min before test, listed as CLZ. Format: in vivo. On the procedure:
(§1) The open-field social interaction test was performed as described previously^64 with minor modifications. The test was performed in the open field arena that was used for the open field test. An age- and gender-matched C57Bl/6J mouse (M) caged in a rectangular wire mesh cage (6×6×10 cm), was used as a social cue. The stranger mouse had never been exposed to the test mouse. The test mouse was placed in the open field arena with an empty wire cage for 10 min for habituation. Following the 10 min session, a stranger mouse was placed in the same cage and the test mouse was allowed to explore the arena for another 10 min. The empty cage or caged stranger mouse was placed in the center of one quadrant of the arena, and immobilized on the floor of the arena with double-sided tape. […] The movement of the mouse was recorded with a USB webcam (LIFECAM™ HD-6000, MICROSOFT™) and PC-based video-capture software (WINAVI™ Video Capture, ZJ MEDIA DIGITAL TECHNOLOGY™). The recorded video file was further analyzed by off-line video tracking software (ETHOVISION™ XT 7.0). Time spent in the cage-containing quadrant, and time spent in the area 5 cm proximal to the cage were measured. Immobilization behavior was also measured by video tracking software. […] All data shown are means±s.e.m. and analyzed using two-way ANOVA with Bonferroni's post hoc analysis. […]

Data set [4] deals with wild-type mice. Briefly: Open-field social interaction test. Format: in vivo. The conditions noted are these: 0.0625 mg/kg, listed as CLZ. On the procedure:
as §1

In data set [5] the test system is C57BL/6J mice. Put plainly: Open field test. Format: in vivo. On the procedure:
(§2) Open field test was performed as previously described (Han et al., 2012). 50×50 cm square open field arena with non-transparent white Plexiglas was used in this study. During the 10 min of trial, total distance moved, circling behavior (a complete 360-degree turn of nose angle with respect to the body center) and time in center (20×20 cm imaginary square) were measured by the video-tracking software (EthoVision XT 8.5, Noldus Technology).

For data set [6], the system named is BTBR mice. Put plainly: Open field test. The data set is classed as in vivo. On the procedure:
as §2

Data set [7] deals with Scn1a+/− mice. Briefly: Open field and elevated plus maze tests (sedation, anxiolysis). The data set is classed as in vivo. On the procedure:
Open field test was performed as previously described^23. Briefly, each individual mouse was placed near the wall-side of 38×42 cm open-field arena, and the movement of the mouse was recorded by USB webcam (LIFECAM™ HD-6000, MICROSOFT™) and PC-based video capture software (WINAVI VIDEO CAPTURE™, ZJMEDIA DIGITAL TECHNOLOGY™) for 10 min. The recorded video file was further analyzed by off-line video tracking software (ETHOVISION™ XT 7.0, NOLDUS TECHNOLOGY™). Total distance traveled and time in center (15×15 cm imaginary square) were measured. The open field arena was cleaned with 70% ethanol and wiped with paper towels between each trial.
The elevated plus maze is a plus-shaped maze that is elevated 60 cm above the floor. It consists of two closed arms surrounded by 15-cm high transparent walls and two open arms (5×25 cm) with a small ledge along the side of two open arms to prevent falling from the maze during the test. Each mouse was placed in the center (5×5 cm) of the maze facing one of the closed arms. During the 10-min test period, the movement of the mouse was recorded by a USB webcam (LIFECAM™ HD-6000, MICROSOFT™) and PC-based video capture software (WINAVI VIDEO CAPTURE™, ZJ MEDIA DIGITAL TECHNOLOGY™). The recorded video file was further analyzed by off-line video tracking software (ETHOVISION™ XT 7.0). Times spent in closed arms, center, and open arms were measured. The maze was cleaned with 70% ethanol and wiped with paper towels between each trial.
Oral administration is specifically contemplated for the methods described herein, and is well known for both benzodiazepines and non-BDZ GABA-A enhancers as described herein.

Regarding `Cn1ncnc1COc1nn2c(-c3cc(F)ccc3F)nnc2cc1C(C)(C)C` [L-838,417], the “affinity for the α4 or α6 subtypes” value in data set [1] is on record as “little affinity”. Further, in data set [2], the “autistic-like behaviors and cognitive deficit in BTBR mice (summary)” value is “improved”.

On to `O=C1CN=C(c2ccccc2Cl)c2cc([N+](=O)[O-])ccc2N1` [Clonazepam], for which the “social interaction, open field social interaction test” value in data set [3] is recorded as “completely rescued; also recorded: completely restored; also recorded: completely recovered”. The “social interaction, open field social interaction test” value in data set [4] is given as “no effect; also recorded: absent; also recorded: not changed”. For the same compound, the “anxiety-like behavior: avoidance of the center of an open field” value in data set [5] (low doses of clonazepam) is “little effect”. Besides, the “hyperactivity (total distance moved) and circling behavior” value in data set [5] (low-dose clonazepam) is recorded as “unaffected”. In addition, in data set [6] (0.05 mg/kg), the “visits to center of open field (indicator of abnormally low anxiety)” value was “changed toward the values for C57BL/6J mice”. The “locomotor activity under chronic low dose” value in data set [6] (0.05 mg/kg daily for 14 days) was “did not cause any increase in locomotor activity; also recorded: did not have any effect”. The “tolerance to sedative effect (locomotor activity Day 14 vs Day 1)” value in data set [6] (1 mg/kg (high dose) for 14 days) was “significantly increased locomotor activity; also recorded: caused significant tolerance”. In addition, the “locomotor activity on Day 14 compared to Day 1” value in data set [6] (1 mg/kg for 14 days) came to 222±42%. Besides, in data set [6] (single injection 0.05 mg/kg), the “hyperactivity, total distance moved” value was “significantly reduced” and the “stereotyped circling behavior, number of 360° rotations” value is reported as “significantly reduced”. Further, in data set [7] (0.0625 mg/kg), the “anxiolytic effect in elevated plus maze” value was “did not elicit anxiolytic effects”, the “anxiolytic effect in open field test” value was “not observed” and the “locomotor activity in open field test” value was “not changed”. Further, the sedation entry in data set [7] (both wild-type and Scn1a+/− mice, dose series) is “dose-dependent sedation”. In data set [7] (open field and elevated plus maze, Scn1a+/− mice), the “maximal intraperitoneal dose that did not cause significant sedation or anxiolytic effect” value turned out to be 0.0625 mg/kg. In addition, in data set [2], the “autistic-like behaviors and cognitive deficit in BTBR mice (summary)” value is “improved”.
